Experimental data reported in US20250275993A1, “GLYCOSYLATION INHIBITORS AS THERAPEUTICS FOR STROKE” (The Regents of the University of California, priority 2022, published 2025).

Experiments:
ischemic hindlimb = experiment: Hindlimb ischemia model and evaluation of blood flow; type: in vivo, mouse; conditions: for blood vessel density vs H2O-treated control (CD31): 3 weeks post-ligation; for blood flow recovery one week after surgery: 20% ManN orally or 1 mg/ml Kif ip every other day, H2O group 25%
Experimental: The angiogenic effects of ManN and Kif in a mouse hindlimb ischemia model were assessed. The activity of ManN in a chronic ischemia model that might more specifically reflect its effects as an endothelial cell mitogen and a pro-angiogenic factor was assessed, and the hindlimb ischemia model in the mouse was considered. Several variants have been described, depending on which vessel is occluded. The variant chosen consists in ligation and excision of the femoral artery, which results in more severe ischemia compared to simple femoral artery ligation. Occlusion of two vessels produces more severe ischemia, but has the disadvantage of inducing severe pain and distress, as well as frequent ulcerations and necrosis in mice.
Oral administration of ManN was tested in this femoral artery ligation-excision model. Since Kif has been previously administered intraperitoneally for in vivo studies, this route was employed. Laser Doppler Perfusion Imaging (LDPI) was used as a non-invasive method to monitor time and extent of the blood flow recovery in the ischemic limb. Serial examination of blood flow was taken with LDPI and increment of the perfusion ratio of ischemic (ligated; left side) to non-ischemic (sham; right side) hindlimbs after ligation was used to indicate a recovery of blood flow. Starting immediately after surgery, mice were orally fed with 20% ManN or 1 mg/ml Kif ip every other day, as described in methods. One week after surgery, the perfusion ratio in H2O-fed group indicated a blood flow recovery of […], a value that is in good agreement with published data with the same type of lesion, in the same strain of mice.
C57BL/6 male mice (6-8 weeks old) were subjected to unilateral hindlimb surgery under anesthesia with ketamine/xylazine cocktail. Briefly, the left femoral artery was separated from the vein and nerve, ligated proximally, and excised. The right hindlimb served as control. Blood flow was measured by using a laser Doppler perfusion imager (PeriScan PSI; Perimed). Ischemic and nonischemic limb perfusion was measured before and after surgery and 1, 2 and 3 weeks later. After surgery, mice were randomly allocated to different groups (8 mice for each group). 200 μl of 20% ManN was orally administrated every other day from 3rd day after surgery. 200 μl of 1 mg/nil Kif was administrated through ip injection every other day. H2O was used as a vehicle control. The final blood flow values were expressed as the ratio of ischemic to nonischemic hindlimb perfusion from the same animal. Quantification of blood vessel area was carried out as described.

[1] = system: bovine choroidal microvascular endothelial cells (BCEC); experiment: BCEC proliferation assay (AlamarBlue / crystal violet); type: cell-based
Experimental: The effect of ManN on EC proliferation was assessed.
AlamarBlue detects mitochondria activity as an indication of cell viability which correlates with cell number at certain ranges.
Proliferation assays with BCECs and BRECs were performed. Log-phase growing BCECs or BRECs (passage <10) were trypsinized, re-suspended and seeded in 96-well plates (no coating) in low-glucose DMEM supplemented with 10% bovine calf serum, 2 mM glutamine, and antibiotics (growth medium), at a density of 1200-1500 cells per well in 200 μl volume. All reagents were added at the indicated final concentrations. After 3-6 days, cells were incubated with AlamarBlue for 4 hrs. Fluorescence was measured at 530 nm excitation wavelength and 590 nm emission wavelength. The experiments were repeated at least three times. […] 20% methanol or 0.05% DMSO served as negative controls. […] Human RMVECs and human adult DMVECs were split into Gelatin-coated 96 wells (2000 cells per well) in low glucose DMEM containing 10% FBS. 1200 cells/well was set up for proliferation assay in low glucose media containing 0.5% FBS. Data was collected at day 4 or 5. HUVEC (p7-10) were grown on gelatin-coated plate until it reached 70-80% confluency.
On the day of the assay, cells were dissociated with 0.05% trypsin, which was neutralized with 0.5% FBS-containing EBM. Cells were briefly spun and then re-suspended in 0.5% FBS-media. Cells were counted and plated in 96-well, 1000 cells/well. Triplicate wells were used for each treatment. Data were collected at day 3, and then cells were fixed in 4% paraformaldehyde for 15 min before adding crystal violet. Cell-covered areas were quantified after taking pictures by Image J software.

retinal vasculature = experiment: Retinal neovascularization after intravitreal injection; type: in vivo, mouse; conditions: 500 ng ManN or Kif, 200 ng bFGF intravitreally; after seven days
Experimental: The effect of ManN and Kif on inducing retinal neovascularization was assessed. The findings in cultured eye-derived EC were extended to a suitable in vivo model system. The mouse retina has been used extensively over the past decades to study both physiological and pathological angiogenesis. To obtain a detailed description of the retinal vasculature, images from retinal flat mounts were processed for vascular area fraction (ratio of area covered by blood vessels to total retinal area). Using this model, the effects of ManN in retinal neovascularization were assessed. Kif was also tested in this model because it is a water-soluble inhibitor and its mechanism of glycosylation inhibition is well established. In addition, it shares with ManN the ability to activate ERK, AKT and stress pathways in BCEC (FIG. 7E).
Assessment of retinal angiogenesis following intravitreal administration was done. Briefly, 6-8 weeks old C57BL/6 male mice were randomly allocated to different groups and anesthetized with ketamine/Xylazine cocktail. The indicated amounts of ManN, Kif or bFGF (R&D systems, AF-233-NA) in 1 μl of PBS and PBS vehicle control were injected intravitreally with a 33-gauge Hamilton syringe. Seven days after injection, animals were euthanized. Eyes were then enucleated and fixed in 4% paraformaldehyde (PFA) for 30 mins. Retinas were separated and stained with anti-CD31 immunofluorescence (IF) to evidence the vasculature. Evaluations were performed by an investigator blinded to the treatment. For CD31 IF, rat anti-mouse antibody (BD Biosciences, CAT #550274) was diluted 1:100 and incubated overnight at 4° C. After 4-hour incubation with the Alexa Fluor-488-conjugated anti-rat antibody (Life Technologies, A11006), whole mounts were imaged via the 488 nm channel using AIR Confocal STORM super-resolution system (Nikon). Quantification of vascular density in choroids and retina was carried out by Image J. Each experiment was repeated three times with similar results, and each treatment group consists of 5 individual samples.

[2] = system: BCEC confluent monolayers; experiment: BCEC scratch assay; type: cell-based, bovine
Experimental: BCECs (passage 6-10) and HUVEC (passage 6-8) were used in this assay. Cells were grown until about 80% confluency in 6-well plates, washed twice with PBS and then starved in serum-free DMEM (low Glucose, Hyclone) for 5 hrs before making a “scratch” using 1 ml tip. Cell monolayers were briefly washed once with serum-free media, followed by various treatments in media containing 1% FBS. 48 hrs later, the assay was stopped by adding 2 ml 4% paraformaldehyde. 20 min later, fixed cells were stained with 1 ml Crystal Violet (Sigma). Plates were washed gently under the running tap water and air-dried before taking pictures. Images were acquired by ZEISS Discovery […] microscopy equipped with […] camera. Quantification of wound closure was done using AxioVision LE Rel.4.4 software. Six images were taken for each sample and six measurements (in pixel) were made on each image using AxioVision LE Re1.4.4 software.

| Structure (SMILES) | blood vessel density vs H2O-treated control (CD31) (ischemic hindlimb) [times higher] | blood flow recovery one week after surgery (ischemic hindlimb) | BCEC proliferation by glycosylation inhibitors ([1]; 0.01 to 100 μM, 3 days, absence or presence of 5 ng/ml VEGF) | increase in density of retinal vessels vs PBS group (retinal vasculature) [%] | gap closing in BCEC scratch assay by glycosylation inhibitors ([2]; over 48 hours relative to control) | additivity with VEGF in promoting BCEC proliferation ([1]; 5 ng/ml VEGF) | additivity with bFGF in promoting BCEC proliferation ([1]; 20 ng/ml bFGF, FIG. 11A) | shape of dose-response on BCEC proliferation ([1]; 0.5 μM to 1 mM, 5-6 days, with or without VEGF) | dose range with significant stimulatory effects on BCEC proliferation ([1]; BCEC) | maximal fold increase in EC-covered surface ([1]; ManN at 50 μM alone, crystal violet, FIG. 1A) [fold] | cytotoxicity in glucose-free media ([1]; as little as 4 μM ManN, even in the presence of VEGF) | additivity between ManN and VEGF in glucose-free media ([1]; glucose-free media) | closure of the scratched area vs control ([2]; 40 μM ManN or 50 ng/ml of VEGF, after 48 hours) | additivity of ManN and VEGF in scratch assay ([2]; both ManN and VEGF) |
| --- | --- | --- | --- | --- | --- | --- | --- | --- | --- | --- | --- | --- | --- | --- |
| O=C1N[C@@H]2[C@@H](O)[C@@H](O)[C@H](O)[C@@H](CO)N2C1=O [Kif, Kifunensine, reference compound] | 1.8 | ~47% | stimulated in a dose-dependent fashion | ~20 | significant activity |  |  |  |  |  |  |  |  |  |
| N[C@H](C=O)[C@@H](O)[C@H](O)[C@H](O)CO [ManN, 2-Amino-2-deoxy-D-mannose] | 2.3 | about 40% |  | ~30 |  | additive with VEGF in promoting BCEC proliferation | Additive effects | bell-shaped dose-response curve, with inhibition at higher concentrations | 5-500 UM | ~6.5 | significant cytotoxicity | abolished | significantly accelerated BCEC migration and/or proliferation | additivity was observed |
